The text below walks through data of US6413956B1, “Substituted 4-oxo-quinoline-3-carboxamides” (Neurogen Corporation, priority 1999, dated 2002).

On to `CCOCCCNC(=O)c1c[nH]c2ccc(OCC)cc2c1=O` [compound 42, N-[(3-Ethoxy)propyl] 6-ethoxy-4-oxo-1,4-dihydro-quinoline-3-carboxamide], for which the melting point (commonly the temperature of the solid-liquid transition) was in the range of 179 to 181 °C.
The figure for `CCOc1ccc2[nH]cc(C(=O)NC3CCCCC3)c(=O)c2c1` [compound 46, N-Cyclohexyl 6-ethoxy-4-oxo-1,4-dihydro-quinoline-3-carboxamide] is 191 to 193 °C.
The figure for `COc1ccc2[nH]cc(C(=O)NCc3cccc(CN(C)Cc4ccccc4)c3)c(=O)c2c1` [compound 130, N-[3-(N-Benzyl-N-methylaminomethyl)benzyl]-6-methoxy-4-oxo-1,4-dihydroquinoline-3-carboxamide] is 186 to 188 °C; for `COc1ccc(CNC(=O)c2c[nH]c3ccccc3c2=O)cc1OC` [compound 12, N-(3,4-Dimethoxybenzyl) 4-oxo-1,4-dihydro-quinoline-3-carboxamide] it is 211 to 212 °C; for `CNC(C)c1cccc(CNC(=O)c2c[nH]c3ccc(Cl)cc3c2=O)c1.Cl` (stereo not shown) it is 184 °C (dec.).
The figure for `CN(C)Cc1cccc(CNC(=O)c2c[nH]c3ccc(Cl)cc3c2=O)c1.Cl` is 178 °C (dec.); for `COCc1ccc2[nH]cc(C(=O)NCc3ccccc3)c(=O)c2c1` [compound 31, N-Benzyl 6-methoxymethyl-4-oxo-1,4-dihydro-quinoline-3-carboxamide] it is 195 to 196 °C.
As for `CCOc1ccc2[nH]cc(C(=O)NCc3ccc(CN(C)Cc4ccccc4)cc3)c(=O)c2c1` [compound 98, N-{4-[(N-Benzyl-N-methylamino)methyl]benzyl} 6-ethoxy-4-oxo-1,4-dihydroquinoline-3-carboxamide], the melting point is 129 to 131 °C.
The figure for `CCOc1ccc2[nH]cc(C(=O)NCc3ccc(CN4CCCC4)cc3)c(=O)c2c1` [compound 103, N-{4-[(1-Pyrrolidinyl)methyl]benzyl} 6-ethoxy-4-oxo-1,4-dihydroquinoline-3-carboxamide] is 168 to 171 °C; for `CCOc1ccc2[nH]cc(C(=O)NCc3cccc(CN(C)Cc4ccccc4)c3)c(=O)c2c1` [compound 108, N-{3-[(N-Benzyl-N-methylamino)methyl]benzyl}-6-ethoxy-4-oxo-1,4-dihydroquinoline-3-carboxamide] it is 144 to 146 °C; for `CCCCNC(=O)c1c[nH]c2ccc(COC)cc2c1=O` [compound 34, N-Butyl 6-methoxymethyl-4-oxo-1,4-dihydro-quinoline-3-carboxamide] it is 157 to 159 °C.
The figure for `O=C(NCc1ccc(F)cc1)c1c[nH]c2ccc(Cl)cc2c1=O` [compound 73, N-4-Fluorobenzyl 6-chloro-4-oxo-1,4-dihydroquinoline-3-carboxamide] is 273 to 276 °C.
The figure for `CCOc1ccc2[nH]cc(C(=O)NCc3ccc(CN(Cc4ccccc4)Cc4ccccc4)cc3)c(=O)c2c1` [compound 82, N-[4-(Dibenzylaminomethyl)benzyl] 6-ethoxy-4-oxo-1,4-dihydro-quinoline-3-carboxamide] is 162 to 164 °C.
